# Laboratory results as given in patent US20230355599A1, “BIOMARKERS FOR CBL, AND COMPOSITIONS AND METHODS FOR THEIR USE” (NURIX THERAPEUTICS, INC., priority 2022, published 2023).
# Legend:
# [1] = test system: phosphorylated ZAP70; experiment: Phosphorylated ZAP70 in human CD8+ T cells from whole blood in vitro (flow cytometry); type: cell-based; details: T-cell, whole blood from six human donors, 2 hrs 37° C., anti-CD3/anti-CD28 + crosslinker 60 minutes, read-out: Average mean EC50±standard deviation, phosphorylated ZAP70
# Protocol: To assess these candidate clinical proximal biomarkers of Cbl-b inhibition on T cells, pharmacodynamic analysis was performed. Whole blood was obtained from human donors and incubated with increasing concentrations of Compound 23. The response to Cbl-b inhibition on phosphorylated HS1, PLCγ2, and ZAP70 was measured in CD8^+ T cells using flow cytometry. This technique is highly quantitative and can measure multiple phosphorylation markers in different cell populations within the same sample.
# For pharmacodynamic analysis, whole blood was obtained from six human donors (BioIVT) and used for flow cytometry assays to evaluate phosphorylated biomarkers HS1, PLCγ2, and ZAP70 in CD8^+ T cells.
# Whole blood was collected in a collection tube coated with sodium heparin. […]
# Stained cells were run on an Attune NxT Acoustic Focusing Flow Cytometer (Thermo Fisher, cat. No. A29004), and data was analyzed using FlowJo (v10.6.1) and GraphPad Prism (v8.00) software. Single lymphocytes were gated for CD8^+ cells (CD45^+/CD8^+) cells, and population frequencies were calculated for each population. The data is quantified by the percent positive. […] As protein becomes phosphorylated the fluorescence increases resulting in a larger fraction of the cells entering that gate. Each population was evaluated for % positive pY759-PLCγ2, pY397-HS1 levels, pY319/Syk (Y352)-ZAP70 levels.
# [2] = test system: phosphorylated HS1; experiment: HS1 phosphorylation in stimulated CD8+ T cells of mice after a single oral dose (flow cytometry); type: in vivo
# Protocol: To assess the in vivo effects of Compound 23 on candidate clinical proximal biomarkers of CBL-B inhibition and compare them to anti-tumor efficacy, two experiments were performed in mice. In the first experiment, whole blood was obtained from groups of mice (n=4 per group) administered a single oral dose of either vehicle (0.5% MC/0.2% polysorbate 80 in deionized water) or increasing doses of Compound 23 at 0.3, 1, 3, 10, 30, or 90 mg/kg. The response to Compound 23 on HS1 activation was measured in anti-CD3 and anti-CD28 stimulated CD8^+ T cells using flow cytometry. Compound 23 induced a dose-dependent increase in the proportion of phosphorylated HS1^+CD8^+ in the presence of anti-CD3 and anti-CD28 co-stimulation. The greatest induction of phosphorylated HS1 was observed upon ex vivo stimulation following administration of Compound 23 doses of ≥10 mg/kg. […] Statistical significance was calculated using 2-way ANOVA with Dunnett's multiple comparisons test.
smiles,measurement,setting,value
C[C@H]1CCCN(Cc2cc3c(c(C(F)(F)F)c2)CN(c2cccc([C@]4(c5nncn5C)C[C@@H](C)C4)c2)C3=O)C1 [Compound 23],EC50,[1],120 ± 8.97 nM
same,proximal biomarker pHS1 that correlates with the efficacious range,"[2]; pHS1+CD8+ T cells, mouse syngeneic tumor models, therapeutic range",approximately 50%
same,"minimum biological effect level observed in mice (EC50), phosphorylated HS1+ CD8+","[2]; single oral dose 0.3-90 mg/kg, anti-CD3 and anti-CD28 stimulated CD8+ T cells",12 mg/kg
same,doses giving the greatest induction of phosphorylated HS1,"[2]; single oral dose, ex vivo stimulation",≥ 10 mg/kg
